Assays:
MDA-MB-231 cell line [1] = settings: ERK inhibitor treated cells
MDA-MB-231 cell line [2] = assay: ChIP (chromatin immunoprecipitation) on snail1 and cortactin promoters; type: cell-based, human; settings: ChIP with anti-pS63 c-Jun antibody
Experimental: The cells were then treated with 1.5 M glycine, followed by washing with cold PBS containing protease inhibitor. The fixed cells were loaded in SDS-lysis buffer supplemented with protease/kinase inhibitor, followed by sonication for lysis. The lysed sample proceeded to […] at 13000 rpm for 3 minutes, and the supernatant was transferred into a microcentrifuge tube, followed by sonication again for chromatin fragmentation. Supernatant was obtained by centrifugation, some of which was transferred into input and some of which was reacted with the antibodies of phospho-Ser^63-c-Jun, snail1, and smad 2/3/4 (cell signaling technology, USA) at 4° C. for at least 18 hours. Upon completion of the reaction, the tube was taken out from 4° C., to which sepharose beads coated with protein A and G (1:1), followed by reaction at 4° C. for 4 hours. The tube was then washed with RIPA/150 mM NaCl solution and washed again with RIPA/350 mM NaCl solution. The washed sample was washed again with LiCl washing buffer, which was washed with TE (Tris/EDTA) solution three times. TE solution was added thereto, followed by reaction at 65° C. for 15 hours. On the 3rd day of the reaction, RNase A was added to each input and sample, followed by reaction at 37° C. Proteinase K was added thereto, followed by reaction at 55° C. for 1 hour. […]

SMILES	cell growth (MDA-MB-231 cell line [1])	binding of c-Jun to snail1 promoter region (MDA-MB-231 cell line [2])
N#CC(=C(/N)Sc1ccccc1N)/C(C#N)=C(/N)Sc1ccccc1N [ERK inhibitor]	did not grow normally but instead showed dying proneness	–
Oc1c2ccccc2c2c3c(cccc13)N=N2 [SP600125]	–	did not bind

Source: patent publication US20160109450A1, “METHOD FOR MONITORING METASTASIS OF CANCER CELLS USING CELLS CULTURED IN THREE DIMENSIONAL COLLAGEN ENVIRONMENT” (Medicinal Bioconvergence Research Center, priority 2013, published 2016)
